Key:
PRC1 = target: T1, PRC1 (Mus musculus, UniProt Q9CQJ4); test: Western blot of H2Aub in mESCs cultured with PRC1 inhibitor; assay type: cell-based; settings: 50 μM PRT4165, after 6h of culture, vs DMSO control (FIG. 15b)
T1 construct: endogenous in cells; host or cells: J1 (wild type) and Dnmt-TKO mouse embryonic stem cells
T1 sequence (Q9CQJ4 1-336): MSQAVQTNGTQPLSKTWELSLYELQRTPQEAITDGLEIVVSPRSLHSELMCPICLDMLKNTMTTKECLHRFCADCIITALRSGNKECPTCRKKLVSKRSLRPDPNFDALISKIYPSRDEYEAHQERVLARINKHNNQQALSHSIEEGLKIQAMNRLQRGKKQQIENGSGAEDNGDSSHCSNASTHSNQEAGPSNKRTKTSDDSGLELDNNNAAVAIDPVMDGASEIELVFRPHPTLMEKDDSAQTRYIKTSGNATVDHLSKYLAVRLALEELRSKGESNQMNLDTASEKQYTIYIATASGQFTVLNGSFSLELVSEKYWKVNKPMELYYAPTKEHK
Method: (§1) J1 (wild type), Dnmt-TKO^23 and Tet1-KO Dnmt-TKO mESCs were cultured in FCS/LIF medium without feeders on 0.1% gelatin. FCS/LIF medium consists of GMEM (Gibco) supplemented with 10% FCS, 0.1 mM MEM nonessential amino acids, 2 mM 1-glutamine, 1 mM sodium pyruvate, 0.1 mM 2-mercaptoethanol and mouse LIF (ESGRO, Millipore). For inhibitor experiments, mESCs were plated at a density of 1.5×10^4/cm^2 and left overnight. The next morning medium was exchanged for FCS/LIF medium containing either 50 μM PRC1 inhibitor PRT4165 (Ismail et al., 2013) or DMSO control and cells pelleted at the indicated time for analysis.
mESCs were lysed by sonication in RIPA buffer (150 mM sodium chloride, 1.0% Triton X-100, 0.5% sodium deoxychlorate, 0.1% sodium dodecylsulfate, 50 mM Tris pH 8.0) and protease-inhibitor cocktail (Roche, 11 697 498 001). Cell debris were removed by centrifugation at 14000 g 5 min 4° C. Protein was quantified using the BCA protein assay (Thermo, 23227). 2 μg (for H2A and H2Aub) or 20 μg (for Tet1) of each protein extract was loaded onto an 15% or 8% SDS polyacrylamide gel and transferred to a PVDF membrane after electrophoresis. Membranes were blocked with 5% BSA for 1 hour and then incubated overnight at 4° C. with primary antibodies at the following dilutions: anti-H2A antibody (Abcam, 18255) 1:2000; anti-ubiquityl H2A antibody (Cell Signalling 8240) 1:2000; anti-Tet1 antibody [N1] […]

[1] = test system: germline reprogramming responsive (GRR) genes; test: RNA-Seq differential expression of GRR genes in mESCs; assay type: cell-based, mouse
Method: as §1, with “analysis. […]” for “analysis.”
For study of Tet1-KO and Tet1-WT PGCs, Illumina and Smart-seq adapters from the sequencing reads were first trimmed using Trimmomatic. […] RNA-Seq reads were aligned to the mouse genome (mm9, NCBI build 37) with Bowtie (version 0.12.8) and Tophat (version 2.0.2) with options -N 2 --b2-very-sensitive --b2-L 25. […] Read counts per annotated gene were computed using HTSeq (version 0.5.3p9) and expression level of each gene was quantified by computing the number of fragments detected per kilobase per million of reads (FPKM) using custom R script. […] For determining gene expression levels in wild type and Dnmt1-conditional knockout and matched wild type E10.5 PGCs, raw RNA-Seq reads were downloaded from GSE74938^24 and processed as above. […]

SMILES: O=C1C(=Cc2cccnc2)C(=O)c2ccccc21 [PRT4165]
- inhibition of PRC1-mediated H2A ubiquitination (PRC1): significant inhibition
- number of GRR genes activated (of 45) upon dual inhibition of 5mC/PRC1 repression ([1]; Dnmt-TKO mESCs + 6h PRT4165 (50 μM) vs wild type + 6h DMSO (FIG. 4d, 15c)): 33 GRR genes
- number of GRR genes activated (of 45) upon sole inhibition of PRC1 repression ([1]; wild type mESCs + 6h PRT4165 (50 μM) vs wild type + 6h DMSO (FIG. 4d, 15c)): 10 genes

Source: patent US20210071138A1, “GAMETOGENESIS” (United Kingdom Research and Innovation, priority 2017, published 2021)
